Laboratory results from US12048686B2, “Compositions and methods for activating NRF2-dependent gene expression” (The University of Chicago, priority 2018, dated 2024).

Experiments:
KEAP1 [1] = experiment: Western blot of KEAP1 / HMW-KEAP1 formation in treated cells (HEK293T FLAG-KEAP1, IMR32); assay type: cell-based, human
Method: FLAG-tagged Protein Expression and Western Blotting. Full-length, human PGK1 (NM_000291, Origene) transiently expressed from a pCMV6 entry vector with a C-terminal Myc-DDK tag; full-length, human KEAP1 (28023, Addgene) was transiently expressed from a pcDNA/FRT/TO plasmid with a C-terminal 3×FLAG tag. All references to FLAG-PGK1 or FLAG-KEAP1 represent the proteins in the aforementioned vectors, respectively. Transient protein expression was performed in confluent 10 cm plates of HEK293T cells by transfection of 1 μg plasmid with Lipofectamine 2000 (Invitrogen) according to manufacturer's protocol. For in situ compound or metabolite treatment experiments, compounds were added approximately 24 hours after transfection, and incubated for the indicated duration. For FLAG-KEAP1 western blotting and immunoprecipitation experiments, cells were harvested by scraping, pelleted by centrifugation, washed twice with PBS and lysed in 8 M urea, 50 mM NH4HCO3, phosphatase inhibitor cocktail (Sigma Aldrich), and EDTA-free complete protease inhibitor (Roche), pH 8.0, at 4° C. Lysate was sonicated (Fisher Scientific FB-505), insoluble debris cleared by centrifugation, and the supernatant was diluted into 4× Laemmli buffer containing 50 mM dithiothreitol (DTT) as a reducing agent. Samples were prepared for SDS-PAGE by heating to 95° C. for 5 minutes, cooled to room temperature, resolved on NuPAGE Novex 4-12% Bis-Tris Protein Gels (Invitrogen), and transferred onto nitrocellulose membranes by standard western blotting methods. Membranes were blocked in 2% BSA in TBS containing 0.1% tween-20 (TBST) and probed with primary and secondary antibodies. Primary antibodies used in this study include: anti-FLAG-M2 (1:1000, F1804, Sigma Aldrich), anti-KEAP1 (1:500, SC-15246, Santa Cruz), anti-HSPA1A (1:1000, 4872, Cell Signaling), anti-ACTB (1:1000, 4790, Cell Signaling), anti-GAPDH (1:1000, 2118S, Cell Signaling) and TUBG (1:1000, 5886, Cell Signaling). […]

KEAP1 [2] = target: T1, KEAP1 (Homo sapiens, UniProt Q14145); experiment: Targeted proteomic analysis of crosslinked KEAP1 peptides; assay type: cell-based; settings: gel-isolated HMW-KEAP1 vs monomeric KEAP1
T1 construct: full-length, human KEAP1 (28023, Addgene) was transiently expressed from a pcDNA/FRT/TO plasmid with a C-terminal 3×FLAG tag; host or cells: HEK293T
Method: In-gel digestion of KEAP1 Targeted proteomic analyses of KEAP1 protein were performed by running anti-FLAG enriched HMW-KEAP1 and LMW-KEAP1 (from both CBR-470-1 or MGx treatments as above) on SDS-PAGE gels, and isolated gel pieces were digested in-gel with sequencing grade trypsin (Promega), as previously reported^35. Tryptic peptides from in-gel tryptic digestions were dissolved in 100 mM Tris-HCl, pH 8.0, with 2 mM of CaCl2), and further digested with mass spectrometry-grade chymotrypsin (Thermo Scientific) according to manufacturer's protocol. Chymotryptic digestion reactions were stopped by acidification, and desalted on Ziptip C18 tips.
Targeted proteomic analysis of crosslinked KEAP1 peptides. Double digested KEAP1 peptides from isolated HMW-KEAP1 and monomeric KEAP1 were analyzed by LC-MS/MS on an Easy-nLC 1000 ultra-high pressure LC system coupled to a Q Exactive HF orbitrap and Easy-Spray nanosource as indicated above. Candidate peptides were initially searched by manual inspection of chromatograms and MS1 spectra for m/z values of peptide candidates from predicted digestion sites, crosslink sites and differential presence in HMW- and monomeric KEAP1 from both CBR-470-1 and MGx treated samples. Extracted MS1 ions of the candidates were present in HMW-KEAP1 digests but not in LMW-KEAP1 digests. […]

T1 sequence (Q14145 whole entry): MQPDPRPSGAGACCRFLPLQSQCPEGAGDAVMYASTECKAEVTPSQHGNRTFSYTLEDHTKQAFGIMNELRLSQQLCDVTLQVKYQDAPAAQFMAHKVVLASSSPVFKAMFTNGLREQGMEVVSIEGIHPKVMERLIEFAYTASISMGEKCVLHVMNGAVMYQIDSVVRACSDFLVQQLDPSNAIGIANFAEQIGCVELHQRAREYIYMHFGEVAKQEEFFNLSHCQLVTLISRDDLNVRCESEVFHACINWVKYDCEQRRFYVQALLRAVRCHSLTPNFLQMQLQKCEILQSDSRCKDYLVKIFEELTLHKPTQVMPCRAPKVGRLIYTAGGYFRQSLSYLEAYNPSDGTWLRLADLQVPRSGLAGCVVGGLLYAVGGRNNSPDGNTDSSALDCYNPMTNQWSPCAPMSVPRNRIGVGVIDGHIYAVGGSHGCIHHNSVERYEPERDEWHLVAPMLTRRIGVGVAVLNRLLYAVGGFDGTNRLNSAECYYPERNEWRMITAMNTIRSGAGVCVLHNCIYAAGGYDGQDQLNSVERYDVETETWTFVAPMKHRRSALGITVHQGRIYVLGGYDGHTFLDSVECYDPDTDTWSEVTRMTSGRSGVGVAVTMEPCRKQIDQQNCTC

| Structure (SMILES) | formation of HMW-KEAP1 (KEAP1 [1]; treatment of cell lysates or live cells with metabolite) | MICA crosslinked C151-R135 KEAP1 peptide (KEAP1 [2]) | KEAP1 levels and α-pgK immunoreactive bands (KEAP1 [1]; IMR32 cells, 30 minutes) | high molecular weight KEAP1 (HMW-KEAP1) band (KEAP1 [1]; Western blot of treated cells) |
| --- | --- | --- | --- | --- |
| CC(=O)C=O [MGx, methylglyoxal, reference compound] | selective formation of HMW-KEAP1 | MICA crosslink between C151 and R135 was identified in isolated HMW-KEAP1 |  |  |
| CC(C)CN[C@H]1CS(=O)(=O)C[C@@H]1S(=O)(=O)c1ccc(Cl)cc1 [CBR-470-1] |  | MICA crosslink between C151 and R135 was identified in isolated HMW-KEAP1 | did not result in altered KEAP1 levels, or any α-pgK immunoreactive bands | dose-dependent, high molecular weight KEAP1 (HMW-KEAP1) band |
